Experimental data published in patent publication US4394504A, “Cephalosporin derivatives” (American Home Products Corporation, priority 1981, dated 1983).
≈ marks a conversion by molar mass, not a printed value. Where two headings read alike, the source gives them in different places.

What was measured:
[1] = system: Bordetella brochiseptica (BO BR), strain 4617; assay: Microdilution tube dilution assay MIC, Bordetella brochiseptica 4617; type: cell-based; details: Mueller Hinton Broth, BO BR 4617
Excerpt: (§1) The following examples are presented for purposes of illustration and should not be construed as limitations upon the true scope of this invention.
BO BR--Bordetella brochiseptica,
(§2) The product of Example 18 was reexamined by the microdilution method of tube dilution assay employing Mueller Hinton Broth whereby standardized cultures were introduced into serially diluted antibiotic from Example 18.

[2] = system: Klebsiella pneumoniae (KL PN), strain 10031; assay: Microdilution tube dilution assay MIC, Klebsiella pneumoniae 10031; type: cell-based; details: Mueller Hinton Broth, KL PN 10031
Excerpt: as §1
KL PN--Klebsiella pneumoniae,
as §2

[3] = system: Escherichia coli (ES CO), strain 9637; assay: Microdilution tube dilution assay MIC, Escherichia coli 9637; type: cell-based; details: Mueller Hinton Broth, ES CO 9637
Excerpt: as §1, §2

[4] = system: Proteus mirablis (PR MI), strain 9921; assay: Microdilution tube dilution assay MIC, Proteus mirablis 9921; type: cell-based
Excerpt: as §1, §2

[5] = system: Proteus vulgaris (PR VU), strain 6896; assay: Microdilution tube dilution assay MIC, Proteus vulgaris 6896; type: cell-based; details: Mueller Hinton Broth, PR VU 6896
Excerpt: as §1, §2

[6] = system: Staphylococcus aureus (ST AU), strain CHP; assay: Microdilution tube dilution assay MIC, Staphylococcus aureus CHP; type: cell-based; details: Mueller Hinton Broth
Excerpt: as §1
(§3) ST AU--Staphylococcus aureus,
as §2

[7] = system: Staphylococcus aureus (ST AU), strain 53-180; assay: Microdilution tube dilution assay MIC, Staphylococcus aureus 53-180; type: cell-based; details: Mueller Hinton Broth, ST AU 53-180
Excerpt: as §1, §3, §2

[8] = system: ES IN, strain 65-1; assay: Microdilution tube dilution assay MIC, ES IN 65-1; type: cell-based, Escherichia intermedia; details: Citrobacter intermedius
Excerpt: as §1
ES IM--Escherichia intermedia.
as §2

[9] = system: Staphylococcus aureus (ST AU), strain 209P; assay: Microdilution tube dilution assay MIC, Staphylococcus aureus 209P; type: cell-based
Excerpt: as §1, §3, §2

[10] = system: Enterobacter aerogenes (EN AE), strain 13048; assay: Microdilution tube dilution assay MIC, Enterobacter aerogenes 13048; type: cell-based; details: Klebsiella aerogenes
Excerpt: as §1
EN AE--Enterobacter aerogenes,
as §2

[11] = system: Herellea species (HE SP), strain 9955; assay: Microdilution tube dilution assay MIC, Herellea species 9955; type: cell-based; details: Mueller Hinton Broth, HE SP 9955
Excerpt: as §1, §2

[12] = system: Pseudomonas aeruginosa (PS AE), strain 10145; assay: Microdilution tube dilution assay MIC, Pseudomonas aeruginosa 10145; type: cell-based; details: Mueller Hinton Broth, PS AE 10145
Excerpt: as §1
PS AE--Pseudomonas aeruginosa,
as §2

[13] = system: Staphylococcus aureus (ST AU), strain SMITH; assay: Microdilution tube dilution assay MIC, Staphylococcus aureus SMITH; type: cell-based; details: Mueller Hinton Broth
Excerpt: as §1, §3, §2

[14] = system: Salmonella paratyphi (SA PA), strain 11737; assay: Microdilution tube dilution assay MIC, Salmonella paratyphi 11737; type: cell-based; details: Salmonella enterica
[15] = system: Bacillus subtilis (BA SU), strain 6633; assay: Microdilution tube dilution assay MIC, Bacillus subtilis 6633; type: cell-based
Excerpt: as §1
BA SU--Bacillus subtilis,
as §2

[16] = system: Enterobacter aerogenes (EN AE), strain 13048; assay: Agar serial dilution MIC, Enterobacter aerogenes 13048; type: cell-based; details: Klebsiella aerogenes, EN AE 13048
Excerpt: (§4) The antibacterial compounds of this invention are effective against gram-positive and gram-negative test organisms at inhibitory concentrations at or below 250 micrograms per milliliter using the well-known and scientifically accepted agar serial dilution technique. Thus, the antibacterial agents of this invention are useful in the fields of comparative pharmacology and microbiology and may be used in the treatment of infections amenable to treatment with cephalosporins and penicillins such as bovine mastitis as well as in the eradication of bacterial colonies outside the animal host.
as §1
EN AE--Enterobacter aerogenes, […]

[17] = system: Escherichia coli (ES CO), strain 9637; assay: Agar serial dilution MIC, Escherichia coli 9637; type: cell-based; details: ES CO 9637
Excerpt: as §4, §1

[18] = system: Staphylococcus aureus (ST AU), strain 53-180; assay: Agar serial dilution MIC, Staphylococcus aureus 53-180; type: cell-based
Excerpt: as §4, §1
(§5) ST AU--Staphylococcus aureus, […]

[19] = system: Staphylococcus aureus (ST AU), strain CHP; assay: Agar serial dilution MIC, Staphylococcus aureus CHP; type: cell-based
Excerpt: as §4, §1, §5

[20] = system: Staphylococcus aureus (ST AU), strain 6538P; assay: Agar serial dilution MIC, Staphylococcus aureus 6538P; type: cell-based; details: ST AU 6538P
Excerpt: as §4, §1, §5

[21] = system: Bacillus subtilis (BA SU), strain 6633; assay: Agar serial dilution MIC, Bacillus subtilis 6633; type: cell-based
Excerpt: as §4, §1
BA SU--Bacillus subtilis, […]

[22] = system: Klebsiella pneumoniae (KL PN), strain 10031; assay: Agar serial dilution MIC, Klebsiella pneumoniae 10031; type: cell-based; details: KL PN 10031
Excerpt: as §4, §1
KL PN--Klebsiella pneumoniae, […]

[23] = system: Salmonella paratyphi (SA PA), strain 11737; assay: Agar serial dilution MIC, Salmonella paratyphi 11737; type: cell-based; details: Salmonella enterica
Excerpt: as §4, §1
SA PA--Salmonella paratyphi, […]

[24] = system: Proteus vulgaris (PR VU), strain 6896; assay: Agar serial dilution MIC, Proteus vulgaris 6896; type: cell-based
Excerpt: as §4, §1

[25] = system: Staphylococcus aureus (ST AU), strain SMITH; assay: Agar serial dilution MIC, Staphylococcus aureus SMITH; type: cell-based
Excerpt: as §4, §1, §5

[26] = system: Enterobacter cloacae (EN CL), strain 65-1; assay: Agar serial dilution MIC, Enterobacter cloacae 65-1; type: cell-based; details: EN CL 65-1
Excerpt: as §4, §1
EN CL--Enterobacter cloacae, […]

[27] = system: Proteus mirablis (PR MI), strain 9921; assay: Agar serial dilution MIC, Proteus mirablis 9921; type: cell-based
Excerpt: as §4, §1

[28] = system: AC CA, strain 9955; assay: Agar serial dilution MIC, AC CA 9955; type: cell-based
Excerpt: as §4, §1

[29] = system: Bordetella brochiseptica (BO BR), strain 4617; assay: Agar serial dilution MIC, Bordetella brochiseptica 4617; type: cell-based; details: BO BR 4617
Excerpt: as §4, §1
BO BR--Bordetella brochiseptica, […]

Structure (SMILES) | MIC [1] [µg/mL] | MIC [2] [ng/mL] | MIC [3] [µg/mL] | MIC [5] [µg/mL] | MIC [6] [µg/mL] | MIC [7] [µg/mL] | MIC [11] [µg/mL] | MIC [12] [µg/mL] | MIC [13] [µg/mL] | MIC [14] [µg/mL] | MIC [16] [µg/mL] | MIC [17] [µg/mL] | MIC [20] [µg/mL] | MIC [22] [µg/mL] | MIC [23] [µg/mL] | MIC [26] [µg/mL] | other results
CO/N=C(\C(=O)N[C@@H]1C(=O)N2C(C(=O)O)=C(COC(C)=O)CS[C@H]12)c1csc(N)n1 [Cefotaxime, reference compound] | 15.6 (≈ 34.3 µM) | 0.06 (≈ 0.000132 µM) | 0.0038 (≈ 0.00834 µM) | 0.00023 (≈ 0.000505 µM) | 3.9 (≈ 8.56 µM) | 0.976 (≈ 2.14 µM) | 15.6 (≈ 34.3 µM) | 3.9 (≈ 8.56 µM) | 0.244 (≈ 0.536 µM) | 0.0076 (≈ 0.0167 µM) |  |  |  |  |  |  | MIC [4]: 0.0019 µg/mL (≈ 0.00417 µM); MIC ([8]; microdilution, Mueller Hinton Broth, ES IN 65-1, read-out: MIC): 0.0038 µg/mL (≈ 0.00834 µM); MIC ([9]; 209P): 0.488 µg/mL (≈ 1.07 µM); MIC ([10]; microdilution, Mueller Hinton Broth, EN AE 13048, read-out: MIC): 0.0152 µg/mL (≈ 0.0334 µM); MIC [15]: 0.488 µg/mL (≈ 1.07 µM)
CO/N=C(/C(=O)NC1C(=O)N2C(C(=O)O)=C(COC(C)=O)CSC12)c1cc(N)no1 (stereo not drawn) [Example 15, 3-Acetoxymethyl-7-[2-(3-Amino-5-Isoxazolyl)-2-anti-Methoxyiminoacetamido]-Ceph-3-em-4-Carboxylic Acid] |  |  |  |  |  |  |  |  |  |  | 62.5 (≈ 142 µM) | 15.6 (≈ 35.5 µM) | 7.81 (≈ 17.8 µM) | 15.6 (≈ 35.5 µM) | 15.6 (≈ 35.5 µM) | 62.5 (≈ 142 µM) | MIC [18]: 15.6 µg/mL (≈ 35.5 µM); MIC [19]: 15.6 µg/mL (≈ 35.5 µM); MIC ([21]; agar serial dilution, BA SU 6633, read-out: MIC): 7.81 µg/mL (≈ 17.8 µM); MIC ([24]; agar serial dilution, PR VU 6896, read-out: MIC): 31.3 µg/mL (≈ 71.2 µM); MIC ([25]; agar serial dilution, ST AU SMITH, read-out: MIC): 3.9 µg/mL (≈ 8.88 µM); MIC ([27]; agar serial dilution, PR MI 9921, read-out: MIC): 7.81 µg/mL (≈ 17.8 µM)
CO/N=C(\C(=O)NC1C(=O)N2C(C(=O)O)=C(COC(C)=O)CSC12)c1cc(N)no1 (stereo not drawn) [Example 18, 3-Acetoxymethyl-7-[2-(3-Amino-5-Isoxazolyl)-2-syn-Methoxy-Iminoacetamido]-Ceph-3-em-4-Carboxylic Acid] | 125 (≈ 284 µM) | 15.2 (≈ 0.0346 µM) | 0.122 (≈ 0.278 µM) | 0.122 (≈ 0.278 µM) | 3.9 (≈ 8.88 µM) | 0.488 (≈ 1.11 µM) | 62.5 (≈ 142 µM) | 125 (≈ 284 µM) | 0.244 (≈ 0.555 µM) | 0.488 (≈ 1.11 µM) | 31.3 (≈ 71.2 µM) | 0.488 (≈ 1.11 µM) | 1.95 (≈ 4.44 µM) | 0.488 (≈ 1.11 µM) | 0.488 (≈ 1.11 µM) | 1.95 (≈ 4.44 µM) | MIC [28]: 125 µg/mL (≈ 284 µM); MIC ([4]; microdilution, Mueller Hinton Broth, PR MI 9921, read-out: MIC): 0.122 µg/mL (≈ 0.278 µM); MIC [8]: 0.488 µg/mL (≈ 1.11 µM); MIC ([9]; microdilution, Mueller Hinton Broth, ST AU 209P, read-out: MIC): 0.244 µg/mL (≈ 0.555 µM); MIC [29]: 250 µg/mL (≈ 569 µM); MIC [10]: 0.976 µg/mL (≈ 2.22 µM); MIC ([18]; agar serial dilution, ST AU 53-180, read-out: MIC): 3.9 µg/mL (≈ 8.88 µM); MIC ([19]; agar serial dilution, ST AU CHP, read-out: MIC): 7.81 µg/mL (≈ 17.8 µM); MIC [21]: 0.488 µg/mL (≈ 1.11 µM); MIC [24]: 0.976 µg/mL (≈ 2.22 µM); MIC [25]: 0.488 µg/mL (≈ 1.11 µM); MIC [27]: 0.488 µg/mL (≈ 1.11 µM); MIC ([15]; microdilution, Mueller Hinton Broth, BA SU 6633, read-out: MIC): 1.95 µg/mL (≈ 4.44 µM)
